Laboratory results: publication PMC10700673, “A Smart Intracellular Self‐Assembling Bioorthogonal Raman Active Nanoprobe for Targeted Tumor Imaging” (Advanced Science, 2023)

How the values were obtained:
[1] = tested on: DU145 tumors; experiment: ex vivo Raman imaging of excised tumor sections with MCR analysis; format: in vivo, NU/J nude mice
Procedure: Ex vivo Raman imaging was conducted on the tumor excised from the tumor‐bearing mice at 2 h post‐administration of nanoSABER (Figure 6b–d). To distinguish the probe signal from endogenous autofluorescence and Raman‐active molecules in the tissue matrix, multivariate curve resolution (MCR) analysis was performed on the spectral dataset recorded from the Raman‐mapped tumor sections. MCR is designed to tackle such problems by expressing the original data through a bilinear model of pure component meaningful contributions.^[ [43] ^] Tissue sections were divided into five groups: DU145 control, DU145‐nanoSABER, DU145‐Scr, LNCaP control, and LNCaP‐nanoSABER, with the control group representing mice injected with 100 µL of PBS vehicle. Collected Raman spectra were divided into the above‐mentioned classes. The tumor dataset was also supplemented with spectra from the quartz coverslip and a separate class was created to preclude the impact of background spectral features in the ensuing analysis. […] Since we are particularly interested in the wavenumber features in the cell‐silent region (i.e., the nanoSABER‐specific bands in the otherwise biologically silent spectral region), MCR2 serves as the principal differentiator.
To create a readily interpretable two‐dimensional (2D) visualization plot, we plotted MCR2 scores against that of MCR3, which contains primarily tissue‐characteristic and background features (Figure 6c). […] The highest MCR2 and MCR3 scores for the quartz‐only spectra were used as the lower and upper thresholds, respectively, to depict significant contributions from the individual components. […] This is indicative of a 100% specificity of the nanoSABER probe, without secondary non‐specific spectra from any of the other tumor treatment classes in the ROI. Moreover, 15% of all spectra obtained from mice with DU145 tumors treated with the nanoSABER probe were situated within the ROI, which confirms the high penetration efficiency of the nanoprobes. […]

[2] = tested on: DU145, LNCaP, and RWPE1 cells; experiment: cell viability, Trypan blue cell counting; format: cell-based; settings: 48 h of incubation, % of untreated control, three independent experiments
Excerpt: To confirm that the nanoSABER nanoprobe can effectively differentiate between cells with high and low levels of legumain expression, we examined nanoSABER assembly in DU145, LNCaP, and RWPE1 cells. DU145 and LNCaP are legumain overexpressing and low‐expressing prostate cancer cell lines, respectively, whereas RWPE1 is a normal prostate epithelium cell line. Legumain‐overexpressing tumorigenic cells are aggressive in terms of migration and invasion.^[ [33] ^] Therefore, designing new probes for targeted imaging of legumain expression is of great significance for tumor diagnosis and tumor staging. […] A combination of both high endogenous GSH and high legumain levels is necessary in order for DU145 cells to uncage the thiol and amino groups in the nanoSABER, triggering intramolecular cyclization to form alkyne‐dimers.
For cell viability testing, the total numbers of DU145, LNCaP, and RWPE1 cells were counted after staining with Trypan blue using an Invitrogen Countess 3 automated cell counter. Cells were incubated with nanoSABER at different concentrations. Cell viability was calculated as a percentage of control (untreated cells) set at 100%. Data were expressed as mean ± standard deviation. from three independent experiments.

[3] = tested on: DU145 tumor; experiment: in vivo Raman imaging of tumor-bearing mice; set-up: species or system NU/J nude mice; settings: 2 h after IV injection of 0.0125 mmol kg-1
Procedure: (§1) To further evaluate the ability of the nanoSABER probe to delineate legumain‐overexpressing tumors, in vivo Raman imaging of tumors of mice inoculated with DU145 and LNCaP cells was performed (Figure 6a). The Raman images were captured 2 h after the intravenous (IV) injection of the nanoSABER probe. […] Our results validated that nanoSABER experienced tumor legumain‐triggered self‐assembly into alkyne‐dimer nanoparticles that effectively generated distinct and higher Raman signals in DU145 tumors. To validate our findings, we included a control group that received a PBS injection instead of the nanoSABER probes. In both types of tumors, no Raman signal was detected in the control group (Figure S15, Supporting Information), further confirming that the observed signals in the experimental groups were indeed attributable to the legumain‐instructed self‐assembly of alkyne‐dimer nanoparticles.
(§2) All animal experiments were approved by an institutional animal care and use committee (IACUC) protocol. NU/J nude mice (male, 6–8 weeks old) were subcutaneously injected with 1 × 10^6 DU145 or LNCaP cells in the right flank. Once the tumor reached a volume of 100–200 mm^3, mice were IV injected with 0.0125 mmol kg^–1 nanoSABER or PBS (control group). After 2 h, Raman imaging was performed to determine the amount of intracellular self‐assembly within the tumors.

[4] = tested on: LNCaP tumors; experiment: in vivo Raman imaging of tumor-bearing mice; set-up: species or system NU/J nude mice; settings: 2 h after IV injection of 0.0125 mmol kg-1, compared with DU145
Procedure: as §1, §2

Ac‐Arg‐Arg‐Arg‐Arg‐Arg‐Arg‐Ala‐Ala‐Asn‐Cys(StBu)‐Pra‐Lys‐CBT [nanoSABER]
average ratio of alkyne to nitrile Raman peak intensity of spectra within the ROI ([1]; DU145 tumors excised 2 h after IV 0.0125 mmol kg-1): 1.5
share of all spectra situated within the ROI ([1]; DU145 tumors excised 2 h after IV 0.0125 mmol kg-1, 12 µm cryosections): 15%
specificity (spectra in the ROI of MCR2 versus MCR3 score plot) ([1]; tumors excised 2 h after IV 0.0125 mmol kg-1, 12 µm cryosections): 100%
toxic concentration (no toxicity up to) [2]: > 250 µM
Raman signal of the alkyne peak at 2120 cm-1 in the tumor [3]: Intense Raman signal
Raman signal intensity within the tumor [4]: significantly weaker
